In brackets after ≈: the same amount, converted by molar mass.

One assay concerns Mycobacterium tuberculosis. The assay can be described thus: Anti-tubercular activity against Mycobacterium tuberculosis. It is filed as functional, organism-based.
With `O=[N+]([O-])c1cn2c(n1)OC[C@H](OCc1ccc(OC(F)(F)F)cc1)C2`, 160 nM corresponded to half-maximal inhibition (IC50).
Still for that read-out and setting: as for `O=[N+]([O-])c1cn2c(n1)OC[C@@H](OCc1ccc(OC(F)(F)F)cc1)C2` [PRETOMANID], the figure is 900 nM.

For another assay, the system named is Mycobacterium tuberculosis. Nature of the assay: Potency index, ratio of IC50 for PA-824 to IC50 for test compound against Mycobacterium tuberculosis. Format: functional.
`O=[N+]([O-])c1cn2c(n1)OC[C@H](OCc1ccc(OC(F)(F)F)cc1)C2`: the “Ratio IC50” value amounted to 6.

The next assay concerns Mycobacterium tuberculosis. Nature of the assay: Anti-tubercular activity against Mycobacterium tuberculosis H37Rv incubated at 37 degC by microscopy. It is filed as functional.
For `O=[N+]([O-])c1cn2c(n1)O[C@H](CCOCc1ccc(OC(F)(F)F)cc1)CC2`, the MIC99 – broadly, the lowest concentration that inhibits either 99% of growth or 99% of the strains tested, depending on the study – was determined as 0.39 µM (≈ 0.151 µg/mL).
Same read-out and setting: the same measure for `O=C(OCC[C@H]1CCn2cc([N+](=O)[O-])nc2O1)OCc1ccc(C(F)(F)F)cc1`: 0.39 µM (≈ 0.162 µg/mL).
On the same count and under the same terms, the same measure for `O=C(OCC[C@@H]1CCn2cc([N+](=O)[O-])nc2O1)OCc1ccc(OC(F)(F)F)cc1`: 1.56 µM (≈ 0.673 µg/mL); for `O=C(OCC[C@H]1CCn2cc([N+](=O)[O-])nc2O1)OCc1cccc(OC(F)(F)F)c1`: 0.78 µM (≈ 0.336 µg/mL); for `O=[N+]([O-])c1cn2c(n1)O[C@@H](CCOc1ccccc1)CC2`: 3.12 µM (≈ 0.904 µg/mL).
The same measure, in the same setting: as for `O=[N+]([O-])c1cn2c(n1)O[C@@H](CCOCc1ccc(Cl)cc1)CC2`, the figure is 0.39 µM (≈ 0.132 µg/mL); as for `O=[N+]([O-])c1cn2c(n1)O[C@@H](CCOc1ccc(-c3ccccc3)cc1)CC2`, 0.078 µM (≈ 0.0285 µg/mL).
Take `O=[N+]([O-])c1cn2c(n1)O[C@@H](CCOCc1ccc(Br)cc1)CC2`: the MIC99 stood at 0.39 µM (≈ 0.149 µg/mL).
Still for that read-out and setting: as for `O=[N+]([O-])c1cn2c(n1)O[C@@H](CCOCc1ccc(OC(F)(F)F)cc1)CC2`, the figure is 0.078 µM (≈ 0.0302 µg/mL).
On the same count and under the same terms, the same measure for `O=C(Nc1ccc(-c2ccc(OC(F)(F)F)cc2)cc1)OCC[C@H]1CCn2cc([N+](=O)[O-])nc2O1`: 0.195 µM (≈ 0.096 µg/mL).
Same read-out and setting: the same measure for `O=C(OCC[C@H]1CCn2cc([N+](=O)[O-])nc2O1)OCc1ccccc1OC(F)(F)F`: 0.39 µM (≈ 0.168 µg/mL); for `O=[N+]([O-])c1cn2c(n1)OC[C@@H](OCc1ccc(OC(F)(F)F)cc1)C2` [PRETOMANID]: 0.39 µM (≈ 0.14 µg/mL); for `O=[N+]([O-])c1cn2c(n1)O[C@@H](CCOCc1ccc(C(F)(F)F)cc1)CC2`: 0.195 µM (≈ 0.0724 µg/mL).
`O=[N+]([O-])c1cn2c(n1)O[C@@H](CCOc1ccc(-c3ccc(F)cc3)cc1)CC2` came in with an MIC99 of 0.05 µM (≈ 0.0192 µg/mL).
Still for that read-out and setting: the same measure for `O=[N+]([O-])c1cn2c(n1)O[C@H](CCOc1ccc(OCc3ccccc3)cc1)CC2`: 0.078 µM (≈ 0.0308 µg/mL); for `O=[N+]([O-])c1cn2c(n1)O[C@@H](CCOc1ccc(Cl)cc1)CC2`: 0.39 µM (≈ 0.126 µg/mL); for `O=C(OCC[C@H]1CCn2cc([N+](=O)[O-])nc2O1)OCc1ccc(OC(F)(F)F)cc1`: 0.078 µM (≈ 0.0336 µg/mL).
Still for that read-out and setting: as for `O=[N+]([O-])c1cn2c(n1)O[C@@H](CCOc1ccc(OC(F)(F)F)cc1)CC2`, the figure is 0.098 µM (≈ 0.0366 µg/mL).
The same measure, in the same setting: as for `O=C(Nc1ccc(Cl)cc1)OCC[C@H]1CCn2cc([N+](=O)[O-])nc2O1`, the figure is 0.195 µM (≈ 0.0715 µg/mL); as for `O=[N+]([O-])c1cn2c(n1)O[C@@H](CCOc1ccc(OCc3ccccc3)cc1)CC2`, 0.078 µM (≈ 0.0308 µg/mL).
For the compound `CC(C)(C)c1ccc(COCC[C@H]2CCn3cc([N+](=O)[O-])nc3O2)cc1`, the MIC99 was 0.39 µM (≈ 0.14 µg/mL).
Same read-out and setting: as for `O=[N+]([O-])c1cn2c(n1)O[C@@H](CCOCc1ccc(-c3ccccc3)cc1)CC2`, the figure is 0.195 µM (≈ 0.074 µg/mL).
Still for that read-out and setting: as for `O=C(OCC[C@H]1CCn2cc([N+](=O)[O-])nc2O1)OCc1ccc(Cl)cc1`, the figure is 0.195 µM (≈ 0.0744 µg/mL).
Still for that read-out and setting: as for `O=[N+]([O-])c1cn2c(n1)O[C@@H](CCOc1ccc(C(F)(F)F)cc1)CC2`, the figure is 0.195 µM (≈ 0.0697 µg/mL).

Another assay relates to Mycobacterium tuberculosis. Nature of the assay: Potency index, ratio of IC50 for PA-824 to IC50 for test compound against Mycobacterium tuberculosis H37Rv. Format: functional.
`O=[N+]([O-])c1cn2c(n1)O[C@@H](CCOCc1ccc(OC(F)(F)F)cc1)CC2`: the “Ratio IC50” value is given as 5.
The same measure, in the same setting: as for `O=[N+]([O-])c1cn2c(n1)O[C@@H](CCOCc1ccc(-c3ccccc3)cc1)CC2`, the figure is 2.

Source of the values: ChEMBL document CHEMBL3608227, “Synthesis and anti-tubercular activity of 2-nitroimidazooxazines with modification at the C-7 position as PA-824 analogs” (Bioorg Med Chem Lett, 2015).
